Source: article PMC7901654, “Bioisosteric Discovery of NPA101.3, a Second-Generation RET/VEGFR2 Inhibitor Optimized for Single-Agent Polypharmacology” (Journal of Medicinal Chemistry, 2020)

Assays:
Type in all cases: cell-based
[1] = test system: RET/M918T, RET/A883F, and RET/V804L/M; test: RET phosphorylation Western blot in RAT1 cells, other point mutants; settings: 2 h
Method: (§1) Fibroblasts transfected with RET/C634R were treated with increasing doses of NPA101.3, ranging from 0.1 to 10.0 nM. RET autophosphorylation was assessed by Western blotting using two different antibodies that can recognize phosphorylated Y905, located in the RET kinase activation loop, or Y1062, a multidocking site involved in RET downstream signaling.[41]
(§2) Figure 4 NPA101.3-mediated inhibition of phosphorylation and signaling of oncogenic RET mutants and VEGFR2 in intact cells. Serum-starved RAT1 cells exogenously expressing the (A and B) indicated RET point mutants or (C) NIH3T3 cells exogenously expressing the indicated RET rearranged mutants were treated for 2 h with the indicated concentrations of the compound. Total cell lysates (50 μg) were subjected to immunoblotting with anti-phospho-Y1062 (αp1062) and anti-phospho-Y905 (αp905) RET antibodies. The blots were normalized using the anti-RET (αRET) antibody. (D) HEK293 cells were transiently transfected with human VEGFR2; 36 h after transfection, cells were serum starved for 12 h. The indicated doses of the compound or vehicle (NT) were added for 2 h, and then VEGFA (100 ng/mL) stimulation was applied for 15 min. […]
(§3) Protein lysates were prepared according to standard procedures. […] Immune complexes were detected with the enhanced chemiluminescence kit (Amersham Pharmacia Biotech, Little Chalfont, U.K.). […]

[2] = test system: CCDC6-RET, NCOA4-RET, and FGFR1OP-RET; test: RET phosphorylation Western blot in NIH3T3 cells, rearranged RET; settings: 2 h
Method: as §1, §2, §3

[3] = test system: RET mutant TT, MZ-CRC-1, TPC-1, and Lc-2/ad human cancer cells; test: Cell growth curves, RET mutant human cancer cells taken together; settings: range over TT, MZ-CRC-1, TPC-1, Lc-2/ad, read-out: IC50, proliferation of RET mutant human cancer cells
Method: The IC50 dose for all human RET-negative cells was >100.0 nM, confirming compound selectivity (Figure S8 and Table S4).
(§4) Nthy-ory-3-1 (10000 per well), TPC-1 (10000 per well), MZ-CRC-1 (100000 per well), TT (200000 per well), Lc-2/ad (100000 per well), BCPAP (10000 per well), 8505-C (10000 per well), PC-9 (10000 per well), A549 (10000 per well), CALU-1 (10000 per well), NIH3T3 RET/C634Y (10000 per well), and NIH3T3 HRAS/G12V (10000 per well) were seeded in six-well tissue culture plates. Cells were kept in 2% (TPC-1), 5% (Nthy-ori-3-1), or 10% (BCPAP, 8505-C, CALU-1, A549, PC-9, TT, MZ-CRC-1, and Lc-2/ad) fetal calf serum or in 2% (NIH3T3 RET/C634Y and HRAS/G12V) calf serum. Ba/F3 cells (200000 per well in 2 mL) were seeded in six-well tissue culture plates and kept in 10% fetal calf serum. The day after plating, different concentrations of the drug or vehicle were added to the medium and changed every 2–3 days. Cells were counted every day (Ba/F3), every 2 days (fibroblasts), or every 2–3 days (human cell lines). To compare cell growth, we performed an unpaired Student’s t test using the Instat software program (Graphpad Software Inc.). […] IC50 doses were calculated through a curve fitting analysis from last day of growth curves using the PRISM software program (Graphpad Software Inc.).

NIH3T3 HRAS/G12V cells = test: Cell growth curves, transformed NIH3T3; settings: up to 100.0 nM
Method: as §4, with “lines).” for “lines). To compare cell growth, we performed an unpaired Student’s t test using the Instat software program (Graphpad Software Inc.).”
Supplementary Figure S9: NPA101.3-mediated inhibition of proliferation of RET-transformed NIH3T3 cells […] Serum-starved NIH3T3 cells exogenously expressing the RET/C634Y or HRAS/G12V oncogenes were incubated with vehicle (NT: not treated) or the indicated concentrations of the compound and counted at the indicated time points. […]

[4] = test system: TT (RET/C634W), MZ-CRC-1 (RET/M918T), TPC-1 (CCDC6-RET); test: RET autophosphorylation and SHC/MAPK signalling in RET mutant human cancer cell lines; settings: 2 h treatment
Method: NPA101.3 inhibited RET autophosphorylation and signaling along the SHC/MAPK pathway in human cancer cell lines endogenously expressing RET oncogenic variants, including MTC cell lines, TT (RET/C634W) and MZ-CRC-1 (RET/M918T), and PTC cell line TPC-1 (CCDC6-RET); in the lung adenocarcinoma cell line Lc-2/ad (CCDC6-RET), only RET and SHC (but not MAPK) dephosphorylation was detectable (Figure S4).
Protein lysates were prepared according to standard procedures. Briefly, cells were lysed in a buffer containing 50 mM N-2-hydroxyethylpiperazine-N′-2-ethanesulfonic acid (HEPES; pH 7.5), 1% (v/v) Triton X-100, 150 mM NaCl, 5 mM EGTA, 50 mM NaF, 20 mM sodium pyrophosphate, 1 mM sodium vanadate, 2 mM phenylmethanesulfonyl fluoride (PMSF), and 1 μg/mL aprotinin. Lysates were clarified by centrifugation at 10000g for 15 min. […] Immune complexes were detected with the enhanced chemiluminescence kit (Amersham Pharmacia Biotech, Little Chalfont, U.K.). Anti-phospho-SHC (#Y317), which recognizes SHC protein when phosphorylated on Y317, was from Upstate Biotechnology Inc. (Lake Placid, NY). Anti-SHC (H-108) was from Santa Cruz Biotechnology (Santa Cruz, CA). Anti-MAPK (9101) and anti-phospho-MAPK (9102), specific for p42/44MAPK (ERK1/2) phosphorylated on Thr202/Tyr204, antibodies were from Cell Signaling Technologies (Danvers, MA). […]

CC(C)(C)c1cc(NC(=O)Cc2ccc(-n3cnc4cc(-c5ccc(S(C)(=O)=O)cc5)ccc43)cc2)no1 [NPA101.3]
phosphorylation of other MTC-associated RET oncogenic point mutants [1]: inhibited | phosphorylation of rearranged RET oncoproteins [2]: highly sensitive | IC50 [3]: 0.67 to 3.6 nM | effect on proliferation of NIH3T3 HRAS/G12V cells (NIH3T3 HRAS/G12V cells): virtually no effect | RET autophosphorylation and signaling along the SHC/MAPK pathway [4]: inhibited
